In US20230212121A1 (DAEGU-GYEONGBUK MEDICAL INNOVATION FOUNDATION, priority 2020, published 2023):

Key:
Assay type in all cases: cell-based
[1] = target: T1, serotonin transporter (SERT) (Homo sapiens, UniProt P31645); experiment: Serotonin reuptake inhibition, [3H]-5-HT, HEK-293 cells transfected with 5-HT transporter cDNA; conditions: for Triple reuptake inhibition (Ratio %) SERT: compound 1 μM, [3H]-5-HT, relative to control without compound = 100%, lower value = more inhibition; for IC50: concentration at which Ratio % is 50%, 6 concentrations 1 nM to 1 μM, read-out: Triple reuptake inhibition (IC50, μM) SERT
T1 construct: expressed in transfected cells; host or cells: HEK-293
T1 sequence (P31645 whole entry, species assumed): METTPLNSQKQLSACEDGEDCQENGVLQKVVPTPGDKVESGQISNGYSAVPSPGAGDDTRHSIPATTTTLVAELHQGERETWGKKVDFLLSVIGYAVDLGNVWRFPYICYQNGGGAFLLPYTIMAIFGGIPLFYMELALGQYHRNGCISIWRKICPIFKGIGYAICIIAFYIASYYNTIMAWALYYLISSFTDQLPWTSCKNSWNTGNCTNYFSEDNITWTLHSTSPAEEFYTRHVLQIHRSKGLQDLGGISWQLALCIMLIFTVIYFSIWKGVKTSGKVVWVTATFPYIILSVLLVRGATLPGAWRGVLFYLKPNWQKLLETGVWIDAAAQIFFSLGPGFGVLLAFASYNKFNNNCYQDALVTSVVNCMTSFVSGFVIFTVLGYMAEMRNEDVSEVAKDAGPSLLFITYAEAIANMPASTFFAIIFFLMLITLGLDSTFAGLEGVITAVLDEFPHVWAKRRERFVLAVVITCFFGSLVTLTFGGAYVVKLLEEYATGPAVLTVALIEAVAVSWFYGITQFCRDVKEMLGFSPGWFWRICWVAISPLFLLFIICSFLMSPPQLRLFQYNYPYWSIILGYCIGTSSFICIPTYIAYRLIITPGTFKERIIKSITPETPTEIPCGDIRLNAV
Procedure: (§1) In order to evaluate the reuptake inhibitory effect of the compounds of the Examples according to the present invention on serotonin, norepinephrine and dopamine, the experiments below were performed, and the results are shown in Table 17.
(§2) To evaluate the reuptake inhibition effect on dopamine, the dopamine transporter cDNA was transfected using the HEK-293 cell line, and then sub-seeded in a 24 well plate the next day. After removing the medium, each compound of the Examples or Comparative Examples diluted to 1 μM in uptake buffer was added to a concentration of 200 μl/well and cultured at 37° C. for 15 minutes. 100 μl of uptake buffer containing 20-30 nM [3H]-DA was added and cultured at 37° C. for 5 minutes. The reaction solution was quickly removed and washed three times with 1 ml ice-cold uptake buffer. After dissolving the resultant in 1% SDS (0.5 ml), the degree of binding of radioisotope-labeled dopamine to the transporter was measured.
(§3) For norepinephrine (NE) and serotonin (5-HT), the degree of binding of radioisotope-labeled norepinephrine or serotonin to the transporter was measured in the same manner as above, except that cells transfected with NE or 5-HT transporter cDNA were used and [3H]—NE or [3H]-5-HT was used as a substrate.
(§4) In addition, when evaluating the reuptake inhibitory effect on dopamine, norepinephrine, and serotonin, the same method was performed without treating each compound of the Examples or Comparative Examples as a control, the degree of binding of radioisotope-labeled dopamine, norepinephrine, and serotonin to the transporter was measured, and by using this as a reference (100%), the triple reuptake inhibitory effect was evaluated as a relative ratio (Ratio %). That is, in the control group, the binding of dopamine, norepinephrine, and serotonin to transporters is not inhibited, but when each compound of the Examples is treated and thus the binding is inhibited, the Ratio % value decreases.
(§5) Meanwhile, the Ratio % values were compared, and in the case of the compounds of Examples 6, 10, 13, 14, 17, 20, 21, 22, 30, 31, 32, 34, 36, 38, 39, 40, 54, 55, 56, 57, 58 and 73 with excellent reuptake inhibitory effects on dopamine, norepinephrine and serotonin, the concentration at which the Ratio % is 50% was calculated using a total of 6 concentrations (1 nM, 5 nM, 10 nM, 50 nM, 100 nM, and 1 μM) and expressed as IC50.

[2] = target: T2, norepinephrine transporter (NET) (Homo sapiens, UniProt P23975); experiment: Norepinephrine reuptake inhibition, [3H]-NE, HEK-293 cells transfected with NE transporter cDNA; conditions: for Triple reuptake inhibition (Ratio %) NET: compound 1 μM, [3H]-NE, relative to control without compound = 100%, lower value = more inhibition; for IC50: concentration at which Ratio % is 50%, 6 concentrations 1 nM to 1 μM, read-out: Triple reuptake inhibition (IC50, μM) NET
T2 construct: expressed in transfected cells; host or cells: HEK-293
T2 sequence (P23975 whole entry, species assumed): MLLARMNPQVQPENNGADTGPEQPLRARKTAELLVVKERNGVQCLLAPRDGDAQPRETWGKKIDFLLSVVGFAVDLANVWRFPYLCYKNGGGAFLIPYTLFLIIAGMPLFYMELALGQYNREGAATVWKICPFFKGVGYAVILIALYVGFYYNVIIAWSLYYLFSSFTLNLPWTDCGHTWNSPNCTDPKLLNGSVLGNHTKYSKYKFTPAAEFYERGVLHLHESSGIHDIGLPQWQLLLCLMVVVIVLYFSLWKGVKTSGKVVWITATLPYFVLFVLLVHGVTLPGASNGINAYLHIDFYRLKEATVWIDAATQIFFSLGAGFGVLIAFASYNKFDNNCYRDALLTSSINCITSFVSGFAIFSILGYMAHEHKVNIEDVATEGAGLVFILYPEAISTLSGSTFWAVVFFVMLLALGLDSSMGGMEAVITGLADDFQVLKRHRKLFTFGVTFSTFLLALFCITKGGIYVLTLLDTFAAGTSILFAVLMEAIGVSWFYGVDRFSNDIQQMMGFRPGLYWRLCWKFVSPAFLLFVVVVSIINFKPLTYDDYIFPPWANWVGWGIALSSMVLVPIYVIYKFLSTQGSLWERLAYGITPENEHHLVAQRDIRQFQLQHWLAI
Procedure: as §1, §2, §3, §4, §5

[3] = target: T3, dopamine transporter (DAT) (Homo sapiens, UniProt Q01959); experiment: Dopamine reuptake inhibition, [3H]-DA, HEK-293 cells transfected with dopamine transporter cDNA; conditions: for Triple reuptake inhibition (Ratio %) DAT: compound 1 μM, 20-30 nM [3H]-DA, relative to control without compound = 100%, lower value = more inhibition; for IC50: concentration at which Ratio % is 50%, 6 concentrations 1 nM to 1 μM, read-out: Triple reuptake inhibition (IC50, μM) DAT
T3 construct: expressed in transfected cells; host or cells: HEK-293
T3 sequence (Q01959 whole entry, species assumed): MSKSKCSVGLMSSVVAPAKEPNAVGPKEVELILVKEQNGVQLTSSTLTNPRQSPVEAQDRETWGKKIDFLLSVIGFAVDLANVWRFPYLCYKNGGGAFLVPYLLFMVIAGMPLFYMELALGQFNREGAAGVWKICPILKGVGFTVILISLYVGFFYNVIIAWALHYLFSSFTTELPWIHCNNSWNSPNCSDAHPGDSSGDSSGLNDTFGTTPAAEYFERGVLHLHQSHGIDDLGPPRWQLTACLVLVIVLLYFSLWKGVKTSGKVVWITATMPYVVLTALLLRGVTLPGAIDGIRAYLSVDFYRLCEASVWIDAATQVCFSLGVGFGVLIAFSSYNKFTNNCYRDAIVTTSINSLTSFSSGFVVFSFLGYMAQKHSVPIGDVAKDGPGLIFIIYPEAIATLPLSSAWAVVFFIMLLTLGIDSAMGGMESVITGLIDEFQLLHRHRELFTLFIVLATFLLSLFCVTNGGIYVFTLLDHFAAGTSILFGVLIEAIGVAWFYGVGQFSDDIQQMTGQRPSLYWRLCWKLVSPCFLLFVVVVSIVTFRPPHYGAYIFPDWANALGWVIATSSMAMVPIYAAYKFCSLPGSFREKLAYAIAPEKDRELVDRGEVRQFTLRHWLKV
Procedure: as §1, §2, §4, §5

Row | SMILES | Triple reuptake inhibition (Ratio %) SERT [1] | Triple reuptake inhibition (Ratio %) NET [2] | Triple reuptake inhibition (Ratio %) DAT [3] | IC50 [1] | IC50 [2] | IC50 [3]
1 | CCCCOc1ccc(S(=O)(=O)NCCCN2CCN(c3cccc(C(F)(F)F)c3)CC2)cc1 [Example 26, 4-butoxy-N-(3-(4-(3-(trifluoromethyl)phenyl)piperazin-1-yl)propyl)benzenesulfonamide] | 50.98% | 93.31% | 97.83% | – | – | –
2 | CCCCOc1ccc(S(=O)(=O)NCCCN2CCN(Cc3ccccc3)CC2)cc1 [Example 27, N-(3-(4-benzylpiperazin-1-yl)propyl)-4-butoxybenzenesulfonamide] | 76.16% | 36.89% | 88.17% | – | – | –
3 | CCCCOc1ccc(S(=O)(=O)NCCCN2CCC(Cc3ccc(Cl)cc3)CC2)cc1 [Example 28, 4-butoxy-N-(3-(4-(4-chlorobenzyl)piperidin-1-yl)propyl)benzenesulfonamide] | 26.63% | 64.36% | 94.53% | – | – | –
4 | CCCCOc1ccc(S(=O)(=O)NCCCN2CCC(Cc3ccc(C)cc3)CC2)cc1 [Example 29, 4-butoxy-N-(3-(4-(4-methylbenzyl)piperidin-1-yl)propyl)benzenesulfonamide] | 39.39% | 54.04% | 89.50% | – | – | –
5 | CCCCOc1ccc(S(=O)(=O)NCCCN2CCC(Cc3ccc(OC)cc3)CC2)cc1 [Example 30, 4-butoxy-N-(3-(4-(4-methoxybenzyl)piperidin-1-yl)propyl)benzenesulfonamide] | 23.18% | 37.58% | – | 0.538 µM | 1.7 µM | 11.6 µM
6 | CCCCOc1ccc(S(=O)(=O)NCCCN2CCC(Cc3cccc(Cl)c3)CC2)cc1 [Example 31, 4-butoxy-N-(3-(4-(3-chlorobenzyl)piperidin-1-yl)propyl)benzenesulfonamide] | 14.27% | 18.93% | – | 0.216 µM | 0.041 µM | 1.05 µM
7 | CCCCOc1ccc(S(=O)(=O)NCCCN2CCC(Cc3ccc(F)cc3)CC2)cc1 [Example 32, 4-butoxy-N-(3-(4-(4-fluorobenzyl)piperidin-1-yl)propyl)benzenesulfonamide] | 30.80% | 20.42% | 45.64% | 0.386 µM | 0.749 µM | 2.14 µM
8 | CCCCOc1ccc(S(=O)(=O)NCCCN2CCC(c3cccc(Cl)c3Cl)CC2)cc1 [Example 33, 4-butoxy-N-(3-(4-(2,3-dichlorophenyl)piperidin-1-yl)propyl)benzenesulfonamide] | 59.74% | 68.93% | 66.67% | – | – | –
9 | O=S(=O)(NCCCN1CCC(Cc2ccccc2)CC1)c1ccc(OC(F)(F)F)cc1 [Example 34, N-(3-(4-benzylpiperidin-1-yl)propyl)-4-(trifluoromethoxy)benzenesulfonamide] | 57.25% | 20.03% | 16.35% | 2.59 µM | 0.612 µM | 0.942 µM
10 | CCCCOc1ccc(S(=O)(=O)NCCCN2CCC(Cc3ccccc3)CC2)nc1 [Example 35, N-(3-(4-benzylpiperidinyl)propyl)-5-butoxypyridin-2-sulfonamide] | 53.08% | 51.99% | 16.12% | – | – | –
11 | O=S(=O)(NCCN1CCC(Cc2ccccc2)CC1)c1cc2ccccc2[nH]1 [Example 36, N-(2-(4-benzylpiperidin-1-yl)ethyl)-1H-indol-2-sulfonamide] | 72.85% | 79.12% | 30.48% | – | – | 0.843 µM
12 | O=S(=O)(NCCN1CCC(Cc2ccccc2)CC1)c1ccc2ccccc2c1 [Example 38, N-(2-(4-benzylpiperidin-1-yl)ethyl) naphthalen-2-sulfonamide] | 34.20% | 21.54% | 56.59% | – | – | 0.493 µM
13 | O=S(=O)(NCCN1CCC(Cc2ccccc2)CC1)c1cccc2ccccc12 [Example 39, N-(2-(4-benzylpiperidin-1-yl)ethyl)naphthalen-1-sulfonamide] | 15.77% | 18.46% | 31.26% | – | – | 1.16 µM
14 | O=S(=O)(NCCN1CCC(Cc2ccccc2)CC1)c1ccc(-c2ccccc2)cc1 [Example 40, N-(2-(4-benzylpiperidin-1-yl)ethyl)-[1,1′-biphenyl]-4-sulfonamide] | 33.23% | 33.45% | 41.80% | 3.08 µM | 1.05 µM | 3.92 µM
15 | O=S(=O)(NCCN1CCC(Cc2ccccc2)CC1)c1ccc2ccccc2n1 [Example 41, N-(2-(4-benzylpiperidin-1-yl)ethyl)quinolin-2-sulfonamide] | 64.15% | 34.97% | 80.21% | – | – | –
16 | O=S(=O)(NCCN1CCC(c2ccccc2)CC1)c1ccc2ccccc2c1 [Example 42, N-(2-(4-phenylpiperidin-1-yl)ethyl)naphthalen-2-sulfonamide] | 64.15% | 34.97% | 80.21% | – | – | –
17 | O=S(=O)(NCCN1CCC(c2ccccc2)CC1)c1cccc2ccccc12 [Example 43, N-(2-(4-phenylpiperidin-1-yl)ethyl)naphthalen-1-sulfonamide] | 64.15% | 34.97% | 80.21% | – | – | –
18 | O=S(=O)(NCCN1CCC(c2ccccc2)CC1)c1ccc(-c2ccccc2)cc1 [Example 44, N-(2-(4-phenylpiperidin-1-yl)ethyl)-[1,1′-biphenyl]-4-sulfonamide] | 15.55% | 14.04% | 37.93% | – | – | –
19 | O=S(=O)(NCCN1CCC(c2ccccc2)CC1)c1ccc2ccccc2n1 [Example 45, N-(2-(4-phenylpiperidin-1-yl)ethyl)quinolin-2-sulfonamide] | 56.73% | 45.04% | 89.88% | – | – | –
20 | O=S(=O)(NCCN1CCN(Cc2ccccc2)CC1)c1ccc2ccccc2c1 [Example 46, N-(2-(4-benzylpiperazin-1-yl)ethyl)naphthalen-2-sulfonamide] | 49.64% | 87.27% | 83.08% | – | – | –
21 | O=S(=O)(NCCN1CCN(Cc2ccccc2)CC1)c1cccc2ccccc12 [Example 47, N-(2-(4-benzylpiperazin-1-yl)ethyl)naphthalen-1-sulfonamide] | 49.64% | 87.27% | 83.08% | – | – | –
22 | O=S(=O)(NCCN1CCN(c2ccc(Cl)cc2)CC1)c1ccc2ccccc2c1 [Example 50, N-(2-(4-(4-chlorophenyl)piperazinyl)ethyl)naphthalen-2-sulfonamide] | 45.16% | 87.27% | 86.50% | – | – | –
23 | O=S(=O)(NCCN1CCN(c2ccc(Cl)cc2)CC1)c1cccc2ccccc12 [Example 51, N-(2-(4-(4-chlorophenyl)piperazinyl)ethyl)naphthalen-1-sulfonamide] | 47.19% | 64.45% | 68.53% | – | – | –
